According to the NIST ThermoML archive (doi:10.1007/s10765-011-1086-8):
± gives the expanded uncertainty stated by the source. One block for each molecule: values may come before it.

Key:
[1] = relative permittivity at various frequencies (dimensionless); conditions: 303.15 K, 101 kPa, Liquid, Frequency=1 MHz
[2] = relative permittivity at various frequencies (dimensionless); xn = mol fraction of the nth substance listed; conditions: 303.15 K, 101 kPa, Liquid, Frequency=1 MHz, Parallel plate capacitor

Structure (SMILES): C1COCCO1 [1,4-dioxane]
- relative permittivity ([1]; Parallel plate capacitor): 2.26 ± 0.014

Structure (SMILES): C[S+](C)[O-] [dimethyl sulfoxide]
- relative permittivity [1]: 46.05 ± 0.28

Structure (SMILES): CN(C)C=O [dimethylformamide]
- relative permittivity ([1]; Parallel plate capacitor): 36.55 ± 0.22

Second part, the molecule after the results:

- relative permittivity ([1]; Parallel plate capacitor): 76.53 ± 0.46
Structure (SMILES): O [water]

- relative permittivity ([1]; Parallel plate capacitor): 106.14 ± 0.64
Structure (SMILES): NC=O [formamide]

- relative permittivity ([2]; x1 = 0.122): 40.58 ± 0.24
- relative permittivity ([2]; x1 = 0.23): 45 ± 0.27
- relative permittivity ([2]; x1 = 0.327): 49.26 ± 0.3
- relative permittivity ([2]; x1 = 0.414): 53.6 ± 0.32
- relative permittivity ([2]; x1 = 0.493): 58.17 ± 0.35
- relative permittivity ([2]; x1 = 0.5): 58.5 ± 0.35
- relative permittivity ([2]; x1 = 0.565): 63.22 ± 0.38
- relative permittivity ([2]; x1 = 0.63): 67.66 ± 0.41
- relative permittivity ([2]; x1 = 0.69): 72.58 ± 0.44
- relative permittivity ([2]; x1 = 0.745): 77.4 ± 0.46
- relative permittivity ([2]; x1 = 0.796): 82.52 ± 0.5
- relative permittivity ([2]; x1 = 0.843): 86.95 ± 0.52
- relative permittivity ([2]; x1 = 0.886): 91.84 ± 0.55
- relative permittivity ([2]; x1 = 0.927): 96.1 ± 0.58
- relative permittivity ([2]; x1 = 0.965): 101.77 ± 0.61
- relative permittivity ([2]; x1 = 1): 106.14 ± 0.64
Structure (SMILES): NC=O [formamide] + CN(C)C=O

- relative permittivity ([2]; x2 = 0): 36.55 ± 0.22
Structure (SMILES): CN(C)C=O [dimethylformamide] + NC=O

- relative permittivity ([2]; x1 = 0.144): 36.91 ± 0.22
- relative permittivity ([2]; x1 = 0.275): 44.61 ± 0.27
- relative permittivity ([2]; x1 = 0.394): 52.04 ± 0.31
- relative permittivity ([2]; x1 = 0.5): 59.52 ± 0.36
- relative permittivity ([2]; x1 = 0.503): 59.14 ± 0.35
- relative permittivity ([2]; x1 = 0.603): 66.34 ± 0.4
- relative permittivity ([2]; x1 = 0.695): 74.02 ± 0.44
- relative permittivity ([2]; x1 = 0.78): 81.77 ± 0.49
- relative permittivity ([2]; x1 = 0.859): 90.12 ± 0.54
- relative permittivity ([2]; x1 = 0.932): 97.77 ± 0.59
- relative permittivity ([2]; x1 = 1): 106.14 ± 0.64
Structure (SMILES): NC=O [formamide] + NCCO
